Data reported in patent US11466013B2 (Betta Pharmaceuticals Co., LTD, priority 2018, dated 2022).

Key:
COLO205 cells = assay: Cell proliferation assay (COLO205), Cell-titer Glo; type: cell-based; details: Homo sapiens, COLO 205, 120 h incubation
Procedure: COLO205 cells were spread into a 96-well plate at 135 μL/well at 2000 cells. After incubating overnight, compound solutions of gradient concentration was prepared, and added 15 μL of DMSO solution of the test compound of each concentration to the cells of each well. The final concentration of the compound was 30000, 10000, 3333.3, 1111.1, 370.4, 123.5, 41.2, 13.7, 4.6, 0 nM (the final concentration of DMSO was 0.5%). 5% CO2 was incubated for 120 h at 37° C. 50 μL of Cell-titer Glo working solution was added to each well, shaked and mixed, and incubated at room temperature for 10 minutes. The multi-functional microplate reader read the luminescence value, and converted the luminescence value reading into inhibition percentage. Inhibition percentage=(maximum value−reading)/(maximum value−minimum value)*100.
The “maximum value” was the DMSO control, the “minimum value” indicates the cell-free control group.
(§1) Graphpad Prism software was used to perform curve fitting and obtain IC50 value.

HCT 116 cells = assay: Cell proliferation assay (HCT 116), Cell-titer Glo; type: cell-based; details: Homo sapiens, 120 h incubation
Procedure: The HCT 116 cells were paved in a 96-well plate at 1200 cells, 160 μL/well. After incubating overnight, the compound solutions of gradient concentration was prepared, and 40 μL of DMSO solution of the test compound of each concentration was added to the cells of each well. The final concentration of the compound was 30000, 10000, 3333.3, 1111.1, 370.4, 123.5, 41.2, 13.7, 4.6, 0 nM (the final concentration of DMSO was 0.5%). 5% CO2 was incubated for 120 h at 37° C. 50 μL of Cell-titer Glo working solution was added to each well, shaked and mixed, and incubated at room temperature for 10 minutes. The multi-functional microplate reader read the luminescence value, and converted the luminescence value reading into inhibition percentage. Inhibition percentage=(maximum value−reading)/(maximum value−minimum value)*100.
The “maximum value” was the DMSO control, the “minimum value” indicated the cell-free control group.
as §1

ERK2 = ERK2 (Homo sapiens, UniProt P28482); assay: Kinase assay (Caliper, FAM-labeled peptide), ERK2; type: biochemical
Sequence of ERK2 (P28482 whole entry): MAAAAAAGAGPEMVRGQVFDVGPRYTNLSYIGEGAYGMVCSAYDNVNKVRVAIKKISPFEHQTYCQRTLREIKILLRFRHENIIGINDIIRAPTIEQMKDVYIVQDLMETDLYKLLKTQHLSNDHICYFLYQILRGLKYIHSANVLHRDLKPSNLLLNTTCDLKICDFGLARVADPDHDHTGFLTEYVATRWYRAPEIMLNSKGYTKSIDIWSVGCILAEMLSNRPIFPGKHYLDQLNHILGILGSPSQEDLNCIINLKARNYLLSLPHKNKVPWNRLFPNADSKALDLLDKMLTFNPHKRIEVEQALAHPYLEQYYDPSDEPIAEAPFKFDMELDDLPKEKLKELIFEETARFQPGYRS
Method in brief: (§2)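 Kinase preincubated 10 min at room temperature with serially diluted compound before FAM-labeled peptide plus ATP added; reaction run at 28 °C, then stopped. Substrate conversion read by Caliper mobility shift, normalized to DMSO and low controls, curve-fitted for IC50.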

ERK1 = ERK1 (Homo sapiens, UniProt P27361); assay: Kinase assay (Caliper, FAM-labeled peptide), ERK1; type: biochemical
Sequence of ERK1 (P27361 whole entry): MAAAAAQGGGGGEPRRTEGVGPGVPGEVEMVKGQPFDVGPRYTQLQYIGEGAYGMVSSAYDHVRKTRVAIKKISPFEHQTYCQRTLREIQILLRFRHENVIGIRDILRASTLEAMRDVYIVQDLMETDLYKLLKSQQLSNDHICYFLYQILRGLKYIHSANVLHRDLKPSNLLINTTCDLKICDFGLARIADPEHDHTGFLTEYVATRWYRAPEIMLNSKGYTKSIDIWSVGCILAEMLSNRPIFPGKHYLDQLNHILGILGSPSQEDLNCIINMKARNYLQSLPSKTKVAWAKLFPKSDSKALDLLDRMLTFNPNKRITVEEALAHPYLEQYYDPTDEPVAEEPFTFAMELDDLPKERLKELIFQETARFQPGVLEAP
Method in brief: as §2

Compound: COC[C@H]1Cn2cc(-c3nc(Nc4ccnn4C)ncc3C)nc2C(=O)N1Cc1ccc(F)c(F)c1 [AZD0364, reference compound]
- IC50 (COLO205 cells): 72.4 nM
- IC50 (HCT 116 cells): 83 nM

Compound: CCn1nccc1Nc1cc(-c2cc3n(c2)C[C@H](COC)N(Cc2cc(F)ccc2CO)C3=O)c(Cl)cn1 [Example 52, (R)-7-(5-chloro-2-((1-ethyl-1H-pyrazol-5-yl)amino)pyridin-4-yl)-2-(5-fluoro-2-(hydroxymethyl)benzyl)-3-(methoxymethyl)-3,4-dihydropyrrolo[1,2-a]pyrazine-1(2H)-one]
- IC50 (COLO205 cells): 13.6 nM
- IC50 (HCT 116 cells): 10.7 nM

Compound: COC[C@H]1Cn2cc(-c3cc(Nc4ccnn4C(F)F)ncc3Cl)cc2C(=O)N1Cc1cc(F)ccc1CO [Example 54, (R)-7-(5-chloro-2-((1-(difluoromethyl)-1H-pyrazol-5-yl)amino)pyridin-4-yl)-2-(5-fluoro-2-(hydroxymethyl)benzyl)-3-(methoxymethyl)-3,4-dihydropyrrolo[1,2-a]pyrazine-1(2H)-ketone]
- IC50 (HCT 116 cells): 16.2 nM

Compound: COC[C@H]1Cn2cc(-c3cc(N[C@H]4CC[C@H](O)CC4)ncc3Cl)cc2C(=O)N1Cc1cc(F)ccc1CO [Example 71, (R)-7-(5-chloro-2-(((1R,4R)-4-hydroxycyclohexyl)amino)pyridine-4-yl)-2-(5-fluoro-2-(hydroxymethyl)benzyl)-3-(methoxymethyl)-3,4-dihydropyrrolo[1,2-a] pyrazine-1(2H)-one]
- IC50 (ERK2): 1.4 nM
- IC50 (HCT 116 cells): 27 nM
- IC50 (ERK1): 1.1 nM

Compound: COC[C@H]1Cn2cc(-c3cc(Nc4conc4C)ncc3Cl)cc2C(=O)N1Cc1cc(F)ccc1CO [Example 83, (R)-7-(5-chloro-2-((3-methylisoxazole-4-yl)amino)pyridine-4-yl)-2-(5-fluoro-2-(hydroxymethyl)benzyl)-3-(methoxymethyl)-3,4-dihydropyrrolo[1,2-a] pyrazine-1(2H)-one]
- IC50 (HCT 116 cells): 23 nM

Compound: COC[C@H]1Cn2cc(-c3cc(Nc4ccn(C)n4)ncc3Cl)cc2C(=O)N1Cc1cc(F)ccc1CO [Example 86, (R)-7-(5-chloro-2-((1-methyl-1h-pyrazole-3-yl)amino)pyridine-4-yl)-2-(5-fluoro-2-(hydroxymethyl)benzyl)-3-(methoxymethyl)-3,4-dihydropyrrolo[1,2-a] pyrazine-1(2H)-one]
- IC50 (COLO205 cells): 29.4 nM
- IC50 (ERK2): 0.8 nM
- IC50 (ERK1): 0.91 nM

Compound: COC[C@H]1Cn2cc(-c3cc(Nc4ccnn4C)ncc3Cl)cc2C(=O)N1Cc1cc(F)c(F)cc1CO [Example 95, (R)-7-(5-chloro-2-((1-methyl-1h-pyrazole-5-yl)amino)pyridine-4-yl)-2-(4,5-difluoro-2-(hydroxymethyl)benzyl)-3-(methoxymethyl)-3,4-dihydropyrrolo[1,2-a] pyrazine-1(2H)-one]
- IC50 (COLO205 cells): 6.9 nM
- IC50 (ERK2): 0.9 nM
- IC50 (HCT 116 cells): 6.9 nM

Compound: COC[C@H]1Cn2cc(-c3cc(Nc4ccnn4C)ncc3Cl)cc2C(=O)N1Cc1cccc(F)c1CO [Example 98, (R)-7-(5-chloro-2-((1-methyl-1h-pyrazole-5-yl)amino)pyridine-4-yl)-2-(3-fluoro-2-(hydroxymethyl)benzyl)-3-(methoxymethyl)-3,4-dihydropyrrolo[1,2-a] pyrazine-1(2H)-one]
- IC50 (COLO205 cells): 10.7 nM
- IC50 (HCT 116 cells): 9 nM

Compound: COC[C@H]1Cn2cc(-c3cc(Nc4ccnn4C)ncc3Cl)cc2C(=O)N1Cc1ccc(F)cc1CO [Example 99, (R)-7-(5-chloro-2-((1-methyl-1h-pyrazole-5-yl)amino)pyridine-4-yl)-2-(4-fluoro-2-(hydroxymethyl)benzyl)-3-(methoxymethyl)-3,4-dihydropyrrolo[1,2-a] pyrazine-1(2H)-one]
- IC50 (COLO205 cells): 21.7 nM
- IC50 (HCT 116 cells): 18 nM

Compound: COC[C@H]1Cn2cc(-c3cc(Nc4ccnn4C)ncc3C(F)(F)F)cc2C(=O)N1Cc1cc(F)ccc1CO [Example 100, (R)-2-(5-fluoro-2-(hydroxymethyl)benzyl)-3-(methoxymethyl)-7-(2-((1-methyl-1h-pyrazole-5-yl)amino)-5-(trifluoromethyl)pyridin-4-yl)-3,4-dihydropyrrolo [1,2-a]pyrazine-1(2H)-one]
- IC50 (COLO205 cells): 19 nM
- IC50 (HCT 116 cells): 19.9 nM

Compound: COC[C@H]1Cn2cc(-c3cc(Nc4ccnn4C)ncc3C)cc2C(=O)N1Cc1cc(F)ccc1CO [Example 102, (R)-2-(5-fluoro-2-(hydroxymethyl)benzyl)-3-(methoxymethyl)-7-(5-methyl-2-((1-methyl-1h-pyrazole-5-yl)amino)pyridine-4-yl)-3,4-dihydropyrrolo[1,2-a] pyrazine-1(2H)-one]
- IC50 (COLO205 cells): 6.4 nM
- IC50 (HCT 116 cells): 11.6 nM

Compound: COC[C@H]1Cn2cc(-c3cc(Nc4ccnn4CC(F)F)ncc3Cl)cc2C(=O)N1Cc1cc(F)ccc1CO [Example 115, (R)-7-(5-chloro-2-((1-(2,2-difluoroethyl)-1h-pyrazole-5-yl)amino)pyridine-4-yl)-2-(5-fluoro-2-(hydroxymethyl)benzyl)-3-(methoxymethyl)-3,4-dihydropyrrolo[1,2-a] pyrazine-1(2H)-one]
- IC50 (COLO205 cells): 16.7 nM
- IC50 (ERK2): 1.2 nM
- IC50 (ERK1): 1.6 nM

Compound: COC[C@H]1Cn2cc(-c3nc(NC4CCOCC4)ncc3Cl)cc2C(=O)N1Cc1cc(F)ccc1CO [Example 130, (R)-7-(5-chloro-2-((tetrahydro-2h-pyran-4-yl)amino)pyrimidin-4-yl)-2-(5-fluoro-2-(hydroxymethyl)benzyl)-3-(methoxymethyl)-3.4-dihydropyrrolo[1,2-a] pyrazine-1(2H)-one]
- IC50 (COLO205 cells): 20.4 nM
- IC50 (HCT 116 cells): 5.3 nM

Compound: Cn1nccc1Nc1cc(-c2cc3n(c2)CCN(Cc2cc(F)cc(F)c2CO)C3=O)c(Cl)cn1 [Example 148, 7-(5-chloro-2-((1-methyl-1h-pyrazole-5-yl)amino)pyridine-4-yl)-2-(3,5-difluoro-2-(hydroxymethyl)benzyl)-3,4-dihydropyrrolo[1,2-a] pyrazine-1(2H)-one]
- IC50 (COLO205 cells): 12.9 nM
- IC50 (ERK2): 0.7 nM
- IC50 (HCT 116 cells): 6.3 nM

Compound: Cn1nccc1Nc1cc(-c2cc3n(c2)CCN(Cc2ccc(F)cc2CO)C3=O)c(Cl)cn1 [Example 149, 7-(5-chloro-2-((1-methyl-1h-pyrazole-5-yl)amino)pyridine-4-yl)-2-(4-fluoro-2-(hydroxymethyl)benzyl)-3,4-dihydropyrrolo[1,2-a] pyrazine-1(2H)-one]
- IC50 (HCT 116 cells): 21.2 nM

Compound: Cn1nccc1Nc1cc(-c2cc3n(c2)CCN(Cc2cccc(F)c2CO)C3=O)c(Cl)cn1 [Example 150, 7-(5-chloro-2-((1-methyl-1h-pyrazole-5-yl)amino)pyridine-4-yl)-2-(3-fluoro-2-(hydroxymethyl)benzyl)-3,4-dihydropyrrolo[1,2-a] pyrazine-1(2H)-one]
- IC50 (COLO205 cells): 17.8 nM
- IC50 (HCT 116 cells): 9.5 nM

Compound: Cn1nccc1Nc1cc(-c2cc3n(c2)CCN(Cc2cc(F)ccc2CO)C3=O)c(C(F)(F)F)cn1 [Example 161, (5-fluoro-2-(hydroxylmethyl)benzyl)-7-(2-((1-methyl-1h-pyrazole-5-yl)amino)-5-(trifluoromethyl)pyridin-4-yl)-3,4-dihydropyrrolo [1,2-a]pyrazine-1(2H)-one]
- IC50 (HCT 116 cells): 24.6 nM

Compound: CC(C)Nc1cc(-c2c[nH]c(C(=O)NCc3cccc(F)c3)c2)c(Cl)cn1 [Example D6, 4-(5-chloro-2-(isopropylamino)pyridine-4-yl)-N-(3-fluorobenzyl)-1h-pyrrole-2-formamide, reference compound]
- IC50 (COLO205 cells): > 10000 nM
- IC50 (ERK2): 26 nM
- IC50 (ERK1): 44 nM

Compound: CC(C)Nc1cc(-c2cc3n(c2)CC(CO)CN(Cc2cccc(Cl)c2)C3=O)c(Cl)cn1 (stereo not shown) [Example D7, 8-(5-chloro-2-(isopropylamino)pyridin-4-yl)-2-(3-chlorophenylmethyl)-4-(hydroxymethyl)-2,3,4,5-tetrahydro-1h-pyrrolo [1,2-a][1,4]diazepine-1-one, reference compound]
- IC50 (COLO205 cells): > 10000 nM
- IC50 (ERK2): > 300 nM
- IC50 (ERK1): > 300 nM

Compound: Cn1nccc1Nc1cc(-c2cc3n(c2)CCN(Cc2cccc(F)c2)C3=O)c(Cl)cn1 [Example D9, 7-(5-chloro-2-((1-methyl-1h-pyrazole-5-yl)amino)pyridine-4-yl)-2-(3-fluorobenzyl)-3,4-dihydropyrrolo[1,2-a] pyrazine-1(2H)-one, reference compound]
- IC50 (HCT 116 cells): 53.6 nM

Compound: Cn1nccc1Nc1cc(-c2cc3n(c2)CCN(Cc2cc(F)cc(F)c2)C3=O)c(Cl)cn1 [Example D10, 7-(5-chloro-2-((1-methyl-1h-pyrazole-5-yl)amino)pyridine-4-yl)-2-(3,5-difluorobenzyl)-3,4-dihydropyrrolo[1,2-a] pyrazine-1(2H)-one, reference compound]
- IC50 (HCT 116 cells): 52.3 nM
